Measured values taken from the NIST ThermoML archive (doi:10.1021/je1011604).
Numbers after ± are expanded uncertainties.

How the values were obtained:
[1] = 101.33 kPa, Liquid, Pycnometric method
[2] = xn = mol fraction of the nth substance listed; settings: 101 kPa, Liquid, Capillary tube (Ostwald / Ubbelohde) method

c1ccccc1 [benzene]
[1]
Settings | mass density [kg/m3]
303.15 K | 868.1 ± 0.5
313.15 K | 857.4 ± 0.6
323.15 K | 846.6 ± 0.6

c1ccccc1 [benzene] + CCC(C)=O
[2], x2 = 0
Settings | viscosity [mPa·s]
303.15 K | 0.564 ± 0.011
313.15 K | 0.498 ± 0.011
323.15 K | 0.442 ± 0.011

CCC(C)=O [butanone]
[1]
Settings | mass density [kg/m3]
303.15 K | 794.6 ± 0.8
313.15 K | 784 ± 0.8
323.15 K | 773.3 ± 0.8

CCC(C)=O [butanone] + c1ccccc1
viscosity [mPa·s], [2]
Settings | x1 = 0.101 | x1 = 0.1999 | x1 = 0.2988 | x1 = 0.3969 | x1 = 0.4996 | x1 = 0.5988 | x1 = 0.6993 | x1 = 0.7931 | x1 = 0.8961 | x1 = 1
303.15 K | 0.534 ± 0.011 | 0.508 ± 0.011 | 0.478 ± 0.011 | 0.452 ± 0.011 | 0.432 ± 0.011 | 0.417 ± 0.011 | 0.401 ± 0.011 | 0.389 ± 0.011 | 0.376 ± 0.011 | 0.367 ± 0.011
313.15 K | 0.473 ± 0.011 | 0.448 ± 0.011 | 0.427 ± 0.011 | 0.409 ± 0.011 | 0.393 ± 0.011 | 0.378 ± 0.011 | 0.367 ± 0.011 | 0.355 ± 0.011 | 0.345 ± 0.011 | 0.334 ± 0.011
323.15 K | 0.422 ± 0.011 | 0.403 ± 0.011 | 0.384 ± 0.011 | 0.369 ± 0.011 | 0.354 ± 0.011 | 0.343 ± 0.011 | 0.333 ± 0.011 | 0.324 ± 0.011 | 0.316 ± 0.011 | 0.306 ± 0.011
